{"source": "BindingDB's records for doi:10.1016/j.ejmech.2013.03.032", "about": "(University of Messina, 2013)", "note": "pKi: −log10 of the molar value.", "data": [{"molecular_target": "T1, Proteasome subunit beta type-1 (Homo sapiens, UniProt P20618)", "T1 sequence (P20618 whole entry)": "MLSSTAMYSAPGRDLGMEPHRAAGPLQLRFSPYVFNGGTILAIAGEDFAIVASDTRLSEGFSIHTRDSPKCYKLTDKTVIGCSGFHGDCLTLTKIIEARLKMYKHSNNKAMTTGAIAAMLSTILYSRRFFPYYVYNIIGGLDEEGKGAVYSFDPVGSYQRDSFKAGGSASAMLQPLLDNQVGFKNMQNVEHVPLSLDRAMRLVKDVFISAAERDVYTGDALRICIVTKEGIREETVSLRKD", "test": "Inhibition of human 20S proteasome post-glutamyl peptide hydrolyzing activity using Z-Leu-Leu-Glu-AMC as substrate measured over 10 mins by fluorescence assay", "values": [{"smiles": "CC(C)C[C@H](NC(=O)Cn1ccc2c(c1=O)CCCN2C)B(O)O", "pKi": 5.41}, {"smiles": "CC(C)C[C@H](NC(=O)[C@H](C)n1ccc2ncccc2c1=O)B(O)O", "pKi": 4.87}, {"smiles": "CC(C)C[C@H](NC(=O)Cn1ccc(Nc2ccccc2)cc1=O)B(O)O", "pKi": 5.29}, {"smiles": "CC(C)C[C@H](NC(=O)Cn1ccc(N2CCCCC2)cc1=O)B(O)O", "pKi": 5.85}, {"smiles": "CC(C)C[C@H](NC(=O)Cn1ccc(N2CCOCC2)cc1=O)B(O)O", "pKi": 6.28}, {"smiles": "CCN(CC)c1ccn(CC(=O)N[C@@H](CC(C)C)B(O)O)c(=O)c1", "pKi": 5.35}, {"smiles": "CC(C)C[C@H](NC(=O)Cn1ccccc1=O)B(O)O", "pKi": 5.86}]}]}
